The values below come from patent US20100075361A1, “METHODS OF GENERATING FLORESCENCE RESONANCE ENERGY TRANSFER (FRET) BETWEEN SEMICONDUCTOR QUANTUM DOTS AND FLUORESCENT DYES/PROTEINS VIA MULTI-PHOTON EXCITATION, ACHIEVING ZERO BACKGROUND OR DIRECT EXCITATION CONTRIBUTIONS TO THE FRET SIGNATURE” (Government of the United States of America the Secretary of …, priority 2008, published 2010).

The nature of data set [1]: Two-photon action cross-section measurement, fluorescein as standard. Format: physicochemical. As to conditions: Water, 800 nm. The text has this: Steady-state composite spectra collected from samples under two-photon excitation were deconvoluted to yield individual photoluminence (PL) contributions using the known spectral profiles of isolated QDs and Cy3 dye emissions (see FIG. 4A, FIG. 4B, FIG. 4C and FIG. 4D).
Table 1 contains data describing two-photon action cross-sections for QDs populations in water and toluene, characterized using fluorescein as a standard in aqueous buffer (φσ2p=36 GM at 800 nm and pH 13), Cy3, fluorescein and wild-type green fluorescent protein (GFP) (from reference 28). Although multi-photon absorption profiles are non-linear optical phenomena, the longer wavelength emitting QD populations show higher two-photon action cross-sections, consistent with the one-photon absorption behavior.

In another data set the test system is HEK 293T/17 cells. Description: Two-photon / one-photon fluorescence microscopy of cells incubated with QD-peptide conjugates. As to conditions: two-photon excitation, 840 nm. Format: cell-based, human. From the text: In the first exemplary embodiment, in regard to quantum dot peptide conjugates, cell penetrating peptide (CPP) was synthesized by Boc-solid phase peptide synthesis with the sequence (His)8-Trp-Gly-Leu-Ala-Aib-Ser-Gly-(Arg)8-amide, where Aib is the artificial residue alpha-amino isobutyric acid. The Cy3-labeled peptide was synthesized with the sequence, Ac-(His)6-Gly-Leu-Aib-[…]NH2, where Ac is an acetyl group at the N-terminus. This peptide was labeled with a maleimide-functionalized Cy3 at the cysteine residue. The polyhistidine sequences at the N-termini of the peptides allowed and/or caused their self-assembly on the QD surface. […]
Exemplary embodiments show a unique advantage of two-photon excitation to probe energy transfer between QDs and conjugated dye acceptors, while investigating the stability of self-assembled QD-peptide conjugates within cells using fluorescence microscopy. […]
Further, in the first exemplary embodiment, in regard to cell imaging, two-photon cell imaging is performed with a BIO-RAD MRC-1024 MP confocal system using ˜10 mW of 840 nm pulsed excitation (˜80 fs, 80 MHz) at the focal plane of a 60×, 0.9 NA water immersion objective microscope. […] DAPI fluorescence cross-talk was subtracted from the QD channel. […]

With Cy3, the Two-photon action cross-section in data set [1] was less than 1 GM.
Take “Tf-Cy3: Cy3-labeled transferrin, endosomal marker, mixed with unlabeled CPP-QD, not bound to QDs”: the “Cy3 fluorescence / FRET from QDs to Cy3 in cells” value in the data set on HEK 293T/17 cells is “does not show any evidence of Cy3 fluorescence”.
